In one test the test system is B. cinerea. Put plainly: Drop inoculation assay on detached Nicotiana benthamiana leaves (semi-in planta). The format is in vivo, Botrytis cinerea. Particulars: 48 h.

In brackets after ≈: the same amount, converted by molar mass. Bridge positions count the residues as written; N and C are the ends. Square brackets hold non-standard residues; d marks the D form. Ends that are not written are not given here. Peptide text beside a SMILES is read from it. Dab = NCC[C@H](N)C(=O)O

For the compound `C[C@H](NC(=O)CN)C(=O)N[C@@H](CS)C(=O)N[C@@H](Cc1c[nH]cn1)C(=O)N[C@@H](CCCNC(=N)N)C(=O)N[C@@H](CCC(N)=O)C(=O)NCC(=O)N[C@@H](Cc1ccccc1)C(=O)NCC(=O)N[C@@H](Cc1ccccc1)C(=O)N[C@@H](C)C(=O)N[C@@H](CS)C(=O)N[C@@H](Cc1ccccc1)C(=O)N[C@@H](CS)C(=O)N[C@@H](Cc1ccc(O)cc1)C(=O)N[C@@H](CCCCN)C(=O)N[C@@H](CCCCN)C(=O)N[C@@H](CS)C(N)=O` [GMA5CA_WT, reference compound] (H-GACHRQGFGFACFCYKKC-NH2; N-terminus assumed), in the test on Botrytis cinerea, the “MIC (μM) (SFM + 2 mM CaCl2)” value was over 12 µM, the “MIC (μM) (SFM + 100 mM KCl)” value is over 12 µM, the “MIC (μM) (SFM + 100 mM NaCl)” value was over 12 µM and the “MIC (μM) SFM” value was 6 µM (≈ 12.2 µg/mL).
Take `C[C@@H](O)[C@H](NC(=O)[C@H](CS)NC(=O)[C@H](Cc1c[nH]c2ccccc12)NC(=O)[C@H](CS)NC(=O)[C@H](CCCNC(=N)N)NC(=O)[C@H](Cc1ccccc1)NC(=O)[C@H](CC(=O)O)NC(=O)[C@H](CC(=O)O)NC(=O)[C@H](CCCNC(=N)N)NC(=O)[C@H](CS)NC(=O)[C@H](CCCNC(=N)N)NC(=O)CN)C(=O)N[C@@H](CCCCN)C(=O)N[C@@H](CC(N)=O)C(=O)N[C@@H](CS)C(=O)O` [GMA1C, reference compound] (H-GRCRDDFRCWCTKNC-OH; N-terminus assumed): in the test on Botrytis cinerea, the “MIC (μM) (SFM + 2 mM CaCl2)” value is over 12 µM, the “MIC (μM) (SFM + 100 mM KCl)” value was over 12 µM, the “MIC (μM) (SFM + 100 mM NaCl)” value is over 12 µM and the “MIC (μM) SFM” value was over 12 µM.
`CC[C@H](C)[C@@H]1NC(=O)[C@H](CCCNC(=N)N)NC(=O)[C@@H](NC(=O)[C@H](CCCNC(=N)N)NC(=O)CNC(=O)[C@@H](N)CO)CSSC[C@@H](C(N)=O)NC(=O)[C@H](CC(N)=O)NC(=O)[C@H](CCCCN)NC(=O)[C@H]([C@@H](C)O)NC(=O)[C@H](Cc2ccccc2)NC(=O)[C@H](Cc2ccc(O)cc2)NC(=O)[C@H](Cc2c[nH]c3ccccc23)NC(=O)[C@H](CCCNC(=N)N)NC(=O)[C@H](Cc2ccccc2)NC(=O)[C@H](CC(C)C)NC1=O` [GMA1C_V3] (H-SGRCRILFRWYFTKNC-NH2; disulfide 4-16; N-terminus assumed): in the test with Botrytis cinerea, the “MIC (μM) (SFM + 2 mM CaCl2)” value was determined as 6 µM, the “MIC (μM) (SFM + 100 mM KCl)” value is over 12 µM, the “MIC (μM) (SFM + 100 mM NaCl)” value was determined as 3 µM and the “MIC (μM) SFM” value amounted to 1.5 µM (≈ 3.07 µg/mL).
Turning to `NCC[C@H](NC(=O)CNC(=O)[C@@H](N)Cc1ccccc1)C(=O)N[C@@H](CS)C(=O)N[C@@H](CCN)C(=O)NCC(=O)N[C@@H](Cc1ccccc1)C(=O)N[C@@H](CCN)C(=O)N[C@@H](CCN)C(=O)N[C@@H](CCN)C(=O)N[C@@H](CS)C(=O)N[C@@H](Cc1ccccc1)C(=O)N[C@@H](CS)C(=O)N[C@@H](Cc1c[nH]c2ccccc12)C(=O)N[C@@H](CCN)C(=O)N[C@@H](Cc1c[nH]c2ccccc12)C(=O)N[C@@H](CS)C(=O)O` [GMA4C_V5, FG(Dab)C(Dab)GF(Dab)(Dab)(Dab)CFCW(Dab)WC] (H-FG[Dab]C[Dab]GF[Dab][Dab][Dab]CFCW[Dab]WC-OH; N-terminus assumed), in the test with Botrytis cinerea, the “B. cinerea MIC” value amounted to 1.5 µM, the “MIC (μM) Botrytis cinerea” value is 6 µM (≈ 11.8 µg/mL), the “SFM + 2 mM CaCl2 MIC” value is over 6 µM and the “SFM + 100 mM KCl MIC” value was over 6 µM. Further, in the test on Botrytis cinerea, the “SFM + 100 mM NaCl MIC” value was 6 µM and the “SFM MIC” value was found to be 6 µM.
As for `CC(C)C[C@H](NC(=O)[C@H](CS)NC(=O)[C@H](C)NC(=O)CN)C(=O)N[C@@H](CCCCN)C(=O)N[C@@H](CC(N)=O)C(=O)N[C@@H](CCCNC(=N)N)C(=O)N[C@@H](Cc1c[nH]cn1)C(=O)N[C@@H](CO)C(=O)N[C@@H](CCCCN)C(=O)N[C@@H](Cc1c[nH]cn1)C(=O)N[C@@H](Cc1ccc(O)cc1)C(=O)NCC(=O)N[C@@H](CS)C(=O)N[C@@H](Cc1ccc(O)cc1)C(=O)N[C@@H](CS)C(=O)N[C@@H](Cc1ccc(O)cc1)C(=O)N[C@@H](Cc1ccc(O)cc1)C(=O)N[C@@H](CCCNC(=N)N)C(=O)N[C@@H](Cc1c[nH]cn1)C(=O)N[C@@H](CS)C(=O)N[C@@H](Cc1ccc(O)cc1)C(N)=O` [GMAOe1C_WT, reference compound] (H-GACLKNRHSKHYGCYCYYRHCY-NH2; N-terminus assumed), in the test with Botrytis cinerea, the “MIC (μM) (SFM + 2 mM CaCl2)” value is over 12 µM, the “MIC (μM) (SFM + 100 mM KCl)” value was 6 to 12 µM, the “MIC (μM) (SFM + 100 mM NaCl)” value was in the range of 3 to 6 µM and the “MIC (μM) SFM” value turned out to be 3 µM (≈ 8.18 µg/mL). For the same compound, the “Gray mold symptoms, drop inoculation assay” value (shortened to “Gray mold symptoms”) in the test with B. cinerea (peptide at 3 μM and 6 μM) was “only effective at 6 μM”.
Regarding `CC(C)C[C@@H]1NC(=O)[C@@H](NC(=O)[C@H](C)NC(=O)CN)CSSC[C@@H](C(=O)N[C@@H](Cc2ccc(O)cc2)C(N)=O)NC(=O)[C@H](Cc2c[nH]cn2)NC(=O)[C@H](CCCNC(=N)N)NC(=O)[C@H](Cc2ccc(O)cc2)NC(=O)[C@H](Cc2ccc(O)cc2)NC(=O)[C@H](Cc2c[nH]c3ccccc23)NC(=O)[C@H](Cc2ccccc2)NC(=O)[C@H](Cc2ccccc2)NC(=O)CNC(=O)[C@H](Cc2ccc(O)cc2)NC(=O)[C@H](Cc2c[nH]cn2)NC(=O)[C@H](CCCCN)NC(=O)[C@H](CO)NC(=O)[C@H](Cc2c[nH]cn2)NC(=O)[C@H](CCCNC(=N)N)NC(=O)[C@H](CC(N)=O)NC(=O)[C@H](CCCCN)NC1=O` [GMAOe1C_V4] (H-GACLKNRHSKHYGFFWYYRHCY-NH2; disulfide 3-21; N-terminus assumed), in the test with Botrytis cinerea, the “MIC (μM) (SFM + 2 mM CaCl2)” value lay within 6 to 12 µM, the “MIC (μM) (SFM + 100 mM KCl)” value is 6 to 12 µM, the “MIC (μM) (SFM + 100 mM NaCl)” value was 6 µM and the “MIC (μM) SFM” value is 1.5 µM (≈ 4.25 µg/mL). In the test with B. cinerea (peptide at 3 μM and 6 μM), the “Gray mold symptoms” value was “completely abrogated gray mold symptoms”.
As for `CC[C@H](C)[C@H](NC(=O)[C@H](CCCNC(=N)N)NC(=O)[C@H](CS)NC(=O)[C@H](CCCNC(=N)N)NC(=O)CNC(=O)[C@@H](N)CO)C(=O)N[C@@H](CC(C)C)C(=O)N[C@@H](Cc1ccccc1)C(=O)N[C@@H](CCCNC(=N)N)C(=O)N[C@@H](CS)C(=O)N[C@@H](Cc1ccccc1)C(=O)N[C@@H](CS)C(=O)N[C@H](C(=O)N[C@@H](CCCCN)C(=O)N[C@@H](CC(N)=O)C(=O)N[C@@H](CS)C(N)=O)[C@@H](C)O` [GMA1C_V1] (H-SGRCRILFRCFCTKNC-NH2; N-terminus assumed), in the test with Botrytis cinerea, the “MIC (μM) (SFM + 100 mM KCl)” value is over 12 µM, the “MIC (μM) (SFM + 100 mM NaCl)” value was over 6 µM and the “MIC (μM) SFM” value was over 6 µM.
Consider `N=C(N)NCCC[C@H](NC(=O)CNC(=O)[C@@H](N)Cc1ccccc1)C(=O)N[C@@H](CS)C(=O)N[C@@H](CCCNC(=N)N)C(=O)NCC(=O)N[C@@H](Cc1ccccc1)C(=O)N[C@@H](CCCNC(=N)N)C(=O)N[C@@H](CCCNC(=N)N)C(=O)N[C@@H](CCCNC(=N)N)C(=O)N[C@@H](CS)C(=O)N[C@@H](Cc1ccccc1)C(=O)N[C@@H](CS)C(=O)N[C@@H](Cc1c[nH]c2ccccc12)C(=O)N[C@@H](CCCNC(=N)N)C(=O)N[C@@H](Cc1c[nH]c2ccccc12)C(=O)N[C@@H](CS)C(=O)O` [GMA4C_V4] (H-FGRCRGFRRRCFCWRWC-OH; N-terminus assumed), for which, in the test with Botrytis cinerea, the “B. cinerea MIC” value is 1.5 µM, the “MIC (μM) Botrytis cinerea” value worked out at 3 µM (≈ 6.89 µg/mL), the “SFM + 2 mM CaCl2 MIC” value was 6 µM and the “SFM + 100 mM KCl MIC” value was determined as 3 µM. For the same compound, in the test with Botrytis cinerea, the “SFM + 100 mM NaCl MIC” value was found to be 3 µM and the “SFM MIC” value was determined as 3 µM.
Take “GACLKNRHSKHYGWFWYYRHCY-NH2 (cysteine pairing not given here) [GMAOe1C_V2]”: the “Gray mold symptoms” value in the test on B. cinerea (peptide at 3 μM and 6 μM) was “completely abrogated gray mold symptoms”.
Turning to `C[C@@H](O)[C@H](NC(=O)[C@H](CS)NC(=O)[C@H](Cc1ccccc1)NC(=O)[C@H](CS)NC(=O)[C@H](CCCNC(=N)N)NC(=O)[C@H](CCCNC(=N)N)NC(=O)[C@H](CCCNC(=N)N)NC(=O)[C@H](Cc1ccccc1)NC(=O)CNC(=O)[C@H](CCCNC(=N)N)NC(=O)[C@H](CS)NC(=O)[C@H](CCCNC(=N)N)NC(=O)CN)C(=O)N[C@H](C(=O)N[C@@H](Cc1c[nH]cn1)C(=O)N[C@@H](CS)C(N)=O)[C@@H](C)O` [GMA4AC] (H-GRCRGFRRRCFCTTHC-NH2), in the test with Botrytis cinerea, the “MIC (μM) SFM” value came to 3 µM (≈ 5.88 µg/mL).
Regarding `CC(C)C[C@@H]1NC(=O)[C@@H](NC(=O)[C@H](C)NC(=O)CN)CSSC[C@@H](C(=O)N[C@@H](Cc2ccc(O)cc2)C(N)=O)NC(=O)[C@H](Cc2c[nH]cn2)NC(=O)[C@H](CCCNC(=N)N)NC(=O)[C@H](Cc2ccc(O)cc2)NC(=O)[C@H](Cc2ccc(O)cc2)NC(=O)[C@H](Cc2c[nH]c3ccccc23)NC(=O)[C@H](Cc2ccccc2)NC(=O)[C@H](Cc2c[nH]c3ccccc23)NC(=O)CNC(=O)[C@H](Cc2ccc(O)cc2)NC(=O)[C@H](Cc2c[nH]cn2)NC(=O)[C@H](CCCCN)NC(=O)[C@H](CO)NC(=O)[C@H](Cc2c[nH]cn2)NC(=O)[C@H](CCCNC(=N)N)NC(=O)[C@H](CC(N)=O)NC(=O)[C@H](CCCCN)NC1=O` [GMAOe1C_V3] (H-GACLKNRHSKHYGWFWYYRHCY-NH2; disulfide 3-21; N-terminus assumed), in the test with Botrytis cinerea, the “MIC (μM) (SFM + 2 mM CaCl2)” value was in the range of 3 to 6 µM, the “MIC (μM) (SFM + 100 mM KCl)” value fell in the range of 6 to 12 µM, the “MIC (μM) (SFM + 100 mM NaCl)” value is 2 to 3 µM and the “MIC (μM) SFM” value was determined as 1.5 µM (≈ 4.31 µg/mL). Also, the “Gray mold symptoms” value in the test on B. cinerea (peptide at 1.5 μM) is “more effective than GMAOe1C_V4 or GMAOe1C_WT”. In addition, the “Gray mold symptoms” value with B. cinerea (peptide at 3 μM and 6 μM) was “completely abrogated gray mold symptoms”.
As to `CC[C@H](C)[C@@H]1NC(=O)[C@H](CCCNC(=N)N)NC(=O)[C@@H](NC(=O)[C@H](CCCNC(=N)N)NC(=O)CNC(=O)[C@@H](N)CO)CSSC[C@@H](C(N)=O)NC(=O)[C@H](CC(N)=O)NC(=O)[C@H](CCCCN)NC(=O)[C@H]([C@@H](C)O)NC(=O)[C@H](Cc2c[nH]c3ccccc23)NC(=O)[C@H](Cc2ccccc2)NC(=O)[C@H](Cc2c[nH]c3ccccc23)NC(=O)[C@H](CCCNC(=N)N)NC(=O)[C@H](Cc2ccccc2)NC(=O)[C@H](CC(C)C)NC1=O` [GMA1C_V2] (H-SGRCRILFRWFWTKNC-NH2; disulfide 4-16; N-terminus assumed), in the test with Botrytis cinerea, the “MIC (μM) (SFM + 2 mM CaCl2)” value is 3 µM, the “MIC (μM) (SFM + 100 mM KCl)” value is over 12 µM, the “MIC (μM) (SFM + 100 mM NaCl)” value was found to be 3 µM and the “MIC (μM) SFM” value was 1.5 to 3 µM. Further, in the test with B. cinerea (peptide at 1.5 μM), the “Gray mold symptoms” value is “more effective than GMA1C_V1”. Besides, in the test with B. cinerea (peptide at 3 μM and 6 μM), the “Gray mold symptoms” value is recorded as “completely abrogated gray mold symptoms”.
